In patent US4648996A, “Phenyl substituted-2,4,6,8-nonatetraenoic acid” (Hoffmann-La Roche Inc., priority 1985, dated 1987):

Legend:
[1] = test system: MBSA delayed hypersensitivity in mice; test: Delayed hypersensitivity to methylated bovine serum albumin (MBSA); type: in vivo, Male and female MFI mice substrain E33; details: for % increase paw volume / % reduction (cf. arachis oil control): 10 doses
Method: Male and female MFI mice substrain E33. Initial weight approximately 25 gm.
Dosing with vehicle and retinoid commenced on day 0 and finished on day 9.
Each group consisted of 4 male and 6 female mice (separately caged). Drugs were dosed orally at a dose volume of 10 ml.kg^-1 (10 doses).

[2] = test system: impregnated sponge granuloma in the rat; test: Impregnated sponge granuloma test in the rat; type: in vivo, AHH/R female rats (PVG derived)
Method: AHH/R female rats (PVG derived) with an initial weight range of 120-140 g. were used.
Sponge preparation. Pellets (6.5 mm diameter) were punched from cellulose sponge cloth ("Wettex") and 0.1 ml. of a suspension containing 0.5 mg.ml^-1 of heat killed M. tuberculosis (human strains C, DT and PN) in sterile saline was applied to each pellet. The pellets were dried, weighed and autoclaved.
Rats were randomly divided into groups of five and daily dosing with test compounds was commenced. After the fifth dose the rats were anaesthetised with Sagatal (45 mg.kg^-1 i.p.) the backs were shaved and two pellets were implanted subcutaneously (one each side) into each rat through a small dorsal midline incision. The incision was closed and the rats allowed to recover from the anaesthetic.
Seven days after implantation the rats were killed and the pellets were removed, dissected free of extraneous tissue and weighed. Each pellet was then placed in a 4 ml aliquot of distilled water, chopped with fine scissors and sonicated. After centrifugation the Na^+ and K^+ content of the supernatant was determined by flame photometry. In addition the adrenal and thumus glands from each rat were dissected out and weighed and the lower hind limbs were removed for measurement of tibial bone breaking strain. Body weights were also recorded throughout the test period.
The mean ± SE for each of the parameters was calculated and differences from the control values were determined by Student's t test (2-tailed). Percentage reductions of granuloma weight, Na^+ and K^+ content and percentage changes of adrenal and thymus, weight and tibial breaking strain were determined.

[3] = test system: established adjuvant arthritis in rats; test: Effect on the course of established adjuvant arthritis; type: in vivo, Male Lewis rats from Charles River; details: 100 mg/kg, 7 days
Method: Male Lewis rats from Charles River were used for these experiments.
Heat-killed, dessicated Mycobacteriam butyricum.
Adjuvant arthritis was induced by the injection of 0.1 ml of adjuvant [a suspension of heat-killed, dessicated Mycobacterium butyricum, 0.5% CW/V) in heavy mineral oil containing 0.2% digitonin] into the base of the tail. The arthritis was allowed to develop for 21 days and then the volume of both hind paws were measured using a mercury plethysmograph. The rats were divided into groups of 8 with equal mean paw volumes and then the rats were treated with Compound A, indomethacin (as a control drug), or vehicle for 7 days at the end of the treatment period, the volumes of both hind paws were again measured to assess antiinflammatory effects. Body weight changes were also followed and, at the end of the experiment, plasma was collected for determination of plasma fibrinogen (Exner et. al., Amer. J. Clin. Path, 71: 521-527).
^b Drugs were administered once a day for 7 days by intubation
^c Change in paw volume/body weight equals paw volume body weight on […]

[4] = test system: adjuvant arthritis in the rat; test: Developing adjuvant arthritis in the rat; type: in vivo, AHH/R Female rats (PVG derived); details: for Joint Mobility (% INC) / Lesion Score (% RDN): day 15; for % reduction of paw swelling, Primary (right): days 0-4; for % reduction of paw swelling, Secondary (left) / % reduction of paw swelling, Secondary (right): days 8-15
Method: AHH/R Female rats (PVG derived with an initial weight range of 110 to 140 g. were used.
Adjuvant for injection. An homogenized suspension of heat killed M tuberculosis (Human strains C, DT and PN), 5 mg.Ml^-1 in liquid paraffin was prepared.
Rats were randomly split into groups of five and adjuvant arthritis was induced by the sub-plantar injection of 0.1 ml of adjuvant suspension into the right hind paw of each rat. Test compounds were administered by intubation each morning commencing the day of adjuvant injection. Two groups of control rats were dosed with the vehicle as was a group of three normal rats included for comparative purposes. Dosing was carried out daily until the end of the test on day 15 except for the first weekend (days 5 & 6). Treatment groups are shown in Table III and include etretinate as standard retinoid.
Measurements of right hind paw volume were made initially and on days 2 and 4 after and adjufant injection (primary phase). Right and left hind paw volume were then measured, on day 8 and every two or three days until the end of the experiment on day 15 (secondary phase). At this time the mobility of each ankle joint and the incidence and severity of secondary lesions on nose, ears, forepaws, left hind paw and tail were also assessed in terms of degrees of flexion possible and by using an arbitrary scoring system, respectively.
The time course curves for the injected paws were integrated from days 0 to 4 to reflect primary swelling and from days 8 to 15 (secondary swelling). The secondary swelling in the non-injected paw was integrated similarly from days 8 to 15. Calculations were carried out using a specific computer program which computed mean ± se for each integrated area. The significance of differences from controls was determined by Student's t test (2 tailed) and percentage reductions from control areas were calculated. Percentage improvements in joint mobility and percentage reductions in lesion score were also determined. In the latter case the Wilcoxon rank sum test (2 tailed) was used to express the difference from the control score using raw data. Mean body weight change in each group was recorded.

SMILES: CCCCCCCCCOc1ccccc1/C=C/C(C)=C/C=C/C(C)=C/C(=O)O [Compound A, All(E)-9-[2(nonyloxy)phenyl]-3,7-dimethyl-2,4,6,8-nonatetraenoic acid]
- % increase paw volume ([1]; 10 mg.kg^-1 oral): 102 ± 12%
- % reduction (cf. arachis oil control) ([1]; 10 mg.kg^-1 oral): 6%
- Mean body weight change ([1]; 10 mg.kg^-1 oral, female (F)): -0.2 g
- Mean body weight change ([1]; 10 mg.kg^-1 oral, male (M)): 3.3 g
- % increase paw volume ([1]; 30 mg.kg^-1 oral): 50 ± 7%
- % reduction (cf. arachis oil control) ([1]; 30 mg.kg^-1 oral): 54%
- Mean body weight change ([1]; 30 mg.kg^-1 oral, female (F)): 0.5 g
- Mean body weight change ([1]; 30 mg.kg^-1 oral, male (M)): 2.8 g
- % increase paw volume ([1]; 100 mg.kg^-1 oral): 40 ± 5%
- % reduction (cf. arachis oil control) ([1]; 100 mg.kg^-1 oral): 63%
- Mean body weight change ([1]; 100 mg.kg^-1 oral, female (F)): -0.2 g
- Mean body weight change ([1]; 100 mg.kg^-1 oral, male (M)): 3.3 g
- % reduction of granuloma K+ ([2]; 15 mg.kg^-1 p.o.): -6.9%
- % reduction of granuloma Na+ ([2]; 15 mg.kg^-1 p.o.): 14.5%
- % reduction of granuloma Wet weight ([2]; 15 mg.kg^-1 p.o.): 15.1%
- % reduction of granuloma K+ ([2]; 45 mg.kg^-1 p.o.): 0.8%
- % reduction of granuloma Na+ ([2]; 45 mg.kg^-1 p.o.): 11%
- % reduction of granuloma Wet weight ([2]; 45 mg.kg^-1 p.o.): 10.8%
- Plasma Fibrinogen [3]: 874 ± 57 mg/dL
- Change in Body Weight ([3]; day 28 minus day 22): 5.2 ± 2.1 g
- Change in Paw Volume ([3]; day 28 minus day 22, both hind paws): -0.96 ± 0.10 mL
- Joint Mobility (% INC) ([4]; 15 mg.kg^-1 p.o.): 66%
- Lesion Score (% RDN) ([4]; 15 mg.kg^-1 p.o.): 72%
- % reduction of paw swelling, Primary (right) ([4]; 15 mg.kg^-1 p.o.): -6%
- % reduction of paw swelling, Secondary (left) ([4]; 15 mg.kg^-1 p.o.): 94%
- % reduction of paw swelling, Secondary (right) ([4]; 15 mg.kg^-1 p.o.): 30%
- Joint Mobility (% INC) ([4]; 45 mg.kg^-1 p.o.): 66%
- Lesion Score (% RDN) ([4]; 45 mg.kg^-1 p.o.): 65%
- % reduction of paw swelling, Primary (right) ([4]; 45 mg.kg^-1 p.o.): 16%
- % reduction of paw swelling, Secondary (left) ([4]; 45 mg.kg^-1 p.o.): 75%
- % reduction of paw swelling, Secondary (right) ([4]; 45 mg.kg^-1 p.o.): 51%
